Laboratory results published in US8686044B2, “Amide derivative, pest control agent containing the amide derivative, and use of the amide derivative” (Mitsui Chemicals Agro, Inc., priority 2008, dated 2014).

Experiments:
Format in all cases: in vivo
[1] = test system: Laodelphax striatellus; test: Pesticidal test against Laodelphax striatellus (rice seedling spray); settings: 144 h, concentration 100 ppm, 3-stage larvae, examined after 6 days, 25° C., read-out: pesticidal rate
Summary of the method: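 Rice seedlings sprayed with 2.5 ml acetone solution of compound at a predetermined concentration, air-dried, then infested with third-stage Laodelphax striatellus larvae in capped water-containing tubes at 25 °C. Living and dead insects counted after 6 days; ten larvae per group, two replicates.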

[2] = test system: Spodoptera litura; test: Pesticidal test against Spodoptera litura (cabbage leaf dip); settings: foliar, 144 h, 2-stage larvae, examined after 6 days, 25° C., read-out: pesticidal rate; for pest or weed control at 1 ppm: concentration 1 ppm; for pest or weed control at 10 ppm: concentration 10 ppm
Summary of the method: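 Cabbage leaf pieces dipped 30 seconds in compound solution at a predetermined concentration and air-dried, then offered to second-stage larvae, five per group in two replicates. Held at 25° C. Living and dead larvae counted after 6 days.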

[3] = test system: Plutella xylostella; test: Pesticidal test against Plutella xylostella (cabbage leaf dip); settings: foliar, 144 h, 2-stage larvae, examined after 6 days, 25° C., read-out: pesticidal rate; for pest or weed control at 1 ppm: concentration 1 ppm; for pest or weed control at 10 ppm: concentration 10 ppm
Summary of the method: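 Cabbage leaf pieces dipped 30 s in test solution at a predetermined concentration, air-dried, then offered to 2nd-instar larvae, five per group in duplicate. Held at 25° C; living and dead larvae counted after 6 days.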

CN(C(=O)c1cccnc1Cl)c1cccc(C(=O)Nc2c(Cl)cc(C(F)(C(F)(F)F)C(F)(F)F)cc2Cl)c1F [7-984]
≥ 70%: pest or weed control at 100 ppm [1] | pest or weed control at 1 ppm [2] | pest or weed control at 1 ppm [3]

CN(C(=O)c1cccnc1Cl)c1cccc(C(=O)Nc2c(Br)cc(C(F)(C(F)(F)F)C(F)(F)F)cc2Br)c1F [7-1140]
≥ 70%: pest or weed control at 100 ppm [1] | pest or weed control at 1 ppm [2] | pest or weed control at 1 ppm [3]

CN(C(=O)c1ccc(Cl)nc1)c1cccc(C(=O)Nc2c(Br)cc(C(F)(C(F)(F)F)C(F)(F)F)cc2Br)c1F [7-1147]
≥ 70%: pest or weed control at 100 ppm [1] | pest or weed control at 1 ppm [2] | pest or weed control at 1 ppm [3]

CN(C(=O)c1ccccc1)c1cccc(C(=O)Nc2c(Br)cc(C(F)(C(F)(F)F)C(F)(F)C(F)(F)F)cc2Br)c1F (stereo not drawn) [7-1182, N-(2,6-dibromo-4-(perfluorobutan-2-yl)phenyl)-2-fluoro-3-(N-methylbenzamide)benzamide]
≥ 70%: pest or weed control at 100 ppm [1] | pest or weed control at 1 ppm [2] | pest or weed control at 1 ppm [3]

CN(C(=O)c1ccccc1F)c1cccc(C(=O)Nc2c(Br)cc(C(F)(C(F)(F)F)C(F)(F)C(F)(F)F)cc2Br)c1F (stereo not drawn) [7-1183]
≥ 70%: pest or weed control at 100 ppm [1] | pest or weed control at 1 ppm [2] | pest or weed control at 1 ppm [3]

CN(C(=O)c1cccc(F)c1)c1cccc(C(=O)Nc2c(Br)cc(C(F)(C(F)(F)F)C(F)(F)C(F)(F)F)cc2Br)c1F (stereo not drawn) [7-1184]
≥ 70%: pest or weed control at 100 ppm [1] | pest or weed control at 1 ppm [2] | pest or weed control at 1 ppm [3]

CN(C(=O)c1ccc(F)cc1)c1cccc(C(=O)Nc2c(Br)cc(C(F)(C(F)(F)F)C(F)(F)C(F)(F)F)cc2Br)c1F (stereo not drawn) [7-1185]
≥ 70%: pest or weed control at 100 ppm [1] | pest or weed control at 1 ppm [2] | pest or weed control at 1 ppm [3]

CN(C(=O)c1ccc(C#N)cc1)c1cccc(C(=O)Nc2c(Br)cc(C(F)(C(F)(F)F)C(F)(F)C(F)(F)F)cc2Br)c1F (stereo not drawn) [7-1203]
≥ 70%: pest or weed control at 100 ppm [1] | pest or weed control at 1 ppm [2] | pest or weed control at 1 ppm [3]

CN(C(=O)c1c(F)cccc1F)c1cccc(C(=O)Nc2c(Br)cc(C(F)(C(F)(F)F)C(F)(F)C(F)(F)F)cc2Br)c1F (stereo not drawn) [7-1204]
≥ 70%: pest or weed control at 100 ppm [1] | pest or weed control at 1 ppm [2] | pest or weed control at 1 ppm [3]

CN(C(=O)c1cccnc1Cl)c1cccc(C(=O)Nc2c(Br)cc(C(F)(C(F)(F)F)C(F)(F)C(F)(F)F)cc2Br)c1F (stereo not drawn) [7-1218]
≥ 70%: pest or weed control at 100 ppm [1] | pest or weed control at 1 ppm [2] | pest or weed control at 1 ppm [3]

CN(C(=O)c1ccc(Cl)nc1)c1cccc(C(=O)Nc2c(Br)cc(C(F)(C(F)(F)F)C(F)(F)C(F)(F)F)cc2Br)c1F (stereo not drawn) [7-1225]
≥ 70%: pest or weed control at 100 ppm [1] | pest or weed control at 1 ppm [2] | pest or weed control at 1 ppm [3]

CN(C(=O)c1ccccc1F)c1cccc(C(=O)Nc2c(I)cc(C(F)(C(F)(F)F)C(F)(F)C(F)(F)F)cc2I)c1F (stereo not drawn) [7-1339]
≥ 70%: pest or weed control at 100 ppm [1] | pest or weed control at 1 ppm [2] | pest or weed control at 1 ppm [3]

CN(C(=O)c1ccc(F)cc1)c1cccc(C(=O)Nc2c(I)cc(C(F)(C(F)(F)F)C(F)(F)C(F)(F)F)cc2I)c1F (stereo not drawn) [7-1341]
≥ 70%: pest or weed control at 100 ppm [1] | pest or weed control at 1 ppm [2] | pest or weed control at 1 ppm [3]

CN(C(=O)c1cccnc1Cl)c1cccc(C(=O)Nc2c(I)cc(C(F)(C(F)(F)F)C(F)(F)C(F)(F)F)cc2I)c1F (stereo not drawn) [7-1374]
≥ 70%: pest or weed control at 100 ppm [1] | pest or weed control at 1 ppm [2] | pest or weed control at 1 ppm [3]

CN(C(=O)c1cccnc1)c1cccc(C(=O)Nc2c(Br)cc(C(F)(C(F)(F)F)C(F)(F)F)cc2C(F)(F)F)c1F [7-1608]
≥ 70%: pest or weed control at 100 ppm [1] | pest or weed control at 1 ppm [2] | pest or weed control at 1 ppm [3]

CN(C(=O)c1cccnc1Cl)c1cccc(C(=O)Nc2c(Br)cc(C(F)(C(F)(F)F)C(F)(F)F)cc2C(F)(F)F)c1F [7-1610]
≥ 70%: pest or weed control at 100 ppm [1] | pest or weed control at 1 ppm [2] | pest or weed control at 1 ppm [3]

CN(C(=O)c1ccncc1)c1cccc(C(=O)Nc2c(Br)cc(C(F)(C(F)(F)F)C(F)(F)F)cc2C(F)(F)F)c1F [7-1639]
≥ 70%: pest or weed control at 100 ppm [1] | pest or weed control at 1 ppm [2] | pest or weed control at 1 ppm [3]

CN(C(=O)c1cccc(C#N)c1)c1cccc(C(=O)Nc2c(Br)cc(C(F)(C(F)(F)F)C(F)(F)C(F)(F)F)cc2C(F)(F)F)c1F (stereo not drawn) [7-1672]
≥ 70%: pest or weed control at 100 ppm [1] | pest or weed control at 1 ppm [2] | pest or weed control at 1 ppm [3]

CN(C(=O)c1ccc(C#N)cc1)c1cccc(C(=O)Nc2c(Br)cc(C(F)(C(F)(F)F)C(F)(F)C(F)(F)F)cc2C(F)(F)F)c1F (stereo not drawn) [7-1673]
≥ 70%: pest or weed control at 100 ppm [1] | pest or weed control at 1 ppm [2] | pest or weed control at 1 ppm [3]

CN(C(=O)c1cccnc1Cl)c1cccc(C(=O)Nc2c(I)cc(C(F)(C(F)(F)F)C(F)(F)C(F)(F)F)cc2C(F)(F)F)c1F (stereo not drawn) [7-1844]
≥ 70%: pest or weed control at 100 ppm [1] | pest or weed control at 1 ppm [2] | pest or weed control at 1 ppm [3]

CN(C(=O)c1ccccc1)c1cc(C(=O)Nc2c(Br)cc(C(F)(C(F)(F)F)C(F)(F)F)cc2C(F)(F)F)ccc1F [7-3348]
≥ 70%: pest or weed control at 100 ppm [1] | pest or weed control at 1 ppm [2] | pest or weed control at 1 ppm [3]

CN(C(=O)c1ccc(C#N)cc1)c1cc(C(=O)Nc2c(Br)cc(C(F)(C(F)(F)F)C(F)(F)F)cc2C(F)(F)F)ccc1F [7-3369]
≥ 70%: pest or weed control at 100 ppm [1] | pest or weed control at 1 ppm [2] | pest or weed control at 1 ppm [3]

CN(C(=O)c1ccccc1)c1cccc(C(=O)Nc2c(Br)cc(C(F)(C(F)(F)F)C(F)(F)F)cc2I)c1F [7-5902]
≥ 70%: pest or weed control at 100 ppm [1] | pest or weed control at 1 ppm [2] | pest or weed control at 1 ppm [3]

CN(C(=O)c1cccnc1Cl)c1cccc(C(=O)Nc2c(Br)cc(C(F)(C(F)(F)F)C(F)(F)F)cc2I)c1F [7-5903]
≥ 70%: pest or weed control at 100 ppm [1] | pest or weed control at 1 ppm [2] | pest or weed control at 1 ppm [3]

CN(C(=O)c1cccc(F)c1)c1cccc(C(=O)Nc2c(I)cc(C(F)(C(F)(F)F)C(F)(F)C(F)(F)F)cc2I)c1 (stereo not drawn) [7-5904]
≥ 70%: pest or weed control at 100 ppm [1] | pest or weed control at 1 ppm [2] | pest or weed control at 1 ppm [3]

CN(C(=O)c1cccc(F)c1)c1cccc(C(=O)Nc2c(Br)cc(C(F)(C(F)(F)F)C(F)(F)C(F)(F)F)cc2Br)c1 (stereo not drawn) [7-5906]
≥ 70%: pest or weed control at 100 ppm [1] | pest or weed control at 1 ppm [2] | pest or weed control at 1 ppm [3]

CN(C(=O)c1ccc(F)cc1)c1cccc(C(=O)Nc2c(Br)cc(C(F)(C(F)(F)F)C(F)(F)C(F)(F)F)cc2Br)c1 (stereo not drawn) [7-5907]
≥ 70%: pest or weed control at 100 ppm [1] | pest or weed control at 1 ppm [2] | pest or weed control at 1 ppm [3]

CN(C(=O)c1cncnc1)c1cccc(C(=O)Nc2c(I)cc(C(F)(C(F)(F)F)C(F)(F)F)cc2C(F)(F)F)c1 [7-5909]
≥ 70%: pest or weed control at 100 ppm [1] | pest or weed control at 10 ppm [2] | pest or weed control at 1 ppm [3]

CN(C(=O)c1cccnc1Cl)c1cccc(C(=O)Nc2c(Br)cc(C(F)(F)C(F)(F)F)cc2C(F)(F)F)c1 [7-5912]
≥ 70%: pest or weed control at 100 ppm [1] | pest or weed control at 10 ppm [2] | pest or weed control at 10 ppm [3]

CN(C(=O)c1cccc(NC(=O)c2ccc(C#N)cc2)c1)c1c(Br)cc(C(F)(C(F)(F)F)C(F)(F)F)cc1C(F)(F)F [8-289, N-(2-bromo-4-(perfluoropropan-2-yl)-6-(trifluoromethyl)phenyl)-3-(4-cyanobenzamide)-N-methylbenzamide]
≥ 70%: pest or weed control at 100 ppm [1] | pest or weed control at 1 ppm [2] | pest or weed control at 1 ppm [3]

CN(C(=O)c1cccc(NC(=O)c2cccnc2Cl)c1)c1c(Br)cc(C(F)(C(F)(F)F)C(F)(F)F)cc1C(F)(F)F [8-304]
≥ 70%: pest or weed control at 100 ppm [1] | pest or weed control at 1 ppm [2] | pest or weed control at 1 ppm [3]

CN(C(=O)c1cccc(NC(=O)c2cccnc2Cl)c1)c1c(C(F)(F)F)cc(C(F)(C(F)(F)F)C(F)(F)F)cc1C(F)(F)F [8-840]
≥ 70%: pest or weed control at 100 ppm [1] | pest or weed control at 1 ppm [2] | pest or weed control at 10 ppm [3]

CN(C(=O)c1ccccc1)c1cccc(C(=O)N(C)c2c(Br)cc(C(F)(C(F)(F)F)C(F)(F)F)cc2C(F)(F)F)c1 [9-270]
≥ 70%: pest or weed control at 100 ppm [1] | pest or weed control at 1 ppm [2] | pest or weed control at 1 ppm [3]
